Reference: ChEMBL document CHEMBL3882388, “Pharmaceutical Compositions Comprising Beta-Lactam Antibiotic, Sulbactam and Beta-Lactamase Inhibitor” (2014)
Values after ≈ are worked out from the molar mass of the structure shown.

Legend:
Acinetobacter baumannii [1] = experiment: Antibacterial activity against extended-spectrum b-lactamase producing Acinetobacter baumannii S-8 incubated for 16 to 20 hrs by CLSI method; type: functional
[2] = molecular target: Beta-lactamase (Acinetobacter baumannii) (UniProt Q8RLA6); conditions: S-15
Sequence of Beta-lactamase (Acinetobacter baumannii) (Q8RLA6 as listed by the source): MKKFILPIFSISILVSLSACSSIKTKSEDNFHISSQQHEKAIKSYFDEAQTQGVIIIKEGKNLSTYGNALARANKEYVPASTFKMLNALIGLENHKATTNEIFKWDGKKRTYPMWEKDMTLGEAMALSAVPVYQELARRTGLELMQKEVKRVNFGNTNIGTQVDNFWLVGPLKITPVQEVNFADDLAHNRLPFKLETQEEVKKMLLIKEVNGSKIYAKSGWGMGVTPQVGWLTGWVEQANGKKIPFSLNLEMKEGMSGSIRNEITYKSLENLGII

[3] = molecular target: Beta-lactamase (Acinetobacter baumannii) (UniProt Q8RLA6); conditions: S-8
[4] = molecular target: Beta-lactamase (Acinetobacter baumannii) (UniProt Q8RLA6); conditions: S-4
[5] = molecular target: Beta-lactamase (Acinetobacter baumannii) (UniProt Q8RLA6); conditions: NCTC 13301
[6] = molecular target: Beta-lactamase (Acinetobacter baumannii) (UniProt Q8RLA6); conditions: S-15; remark: listed apart in the source
[7] = molecular target: Beta-lactamase (Acinetobacter baumannii) (UniProt Q8RLA6); conditions: S-3
[8] = molecular target: Beta-lactamase (Acinetobacter baumannii) (UniProt Q8RLA6); conditions: NCTC 13301; remark: listed apart in the source
[9] = molecular target: Beta-lactamase (Acinetobacter baumannii) (UniProt Q8RLA6); conditions: S-10
[10] = molecular target: Beta-lactamase (Acinetobacter baumannii) (UniProt Q8RLA6); conditions: S-15; remark: listed apart in the source
[11] = molecular target: Beta-lactamase (Acinetobacter baumannii) (UniProt Q8RLA6); experiment: Inhibition of beta-lactamase in extended-spectrum b-lactamase producing Acinetobacter baumannii NCTC 13301 assessed as potentiation of cefpirome-induced antibacterial activity by measuring cefpirome MIC at 4 to 8 ug/ml incubated for 16 to 20 hrs by CLSI method
[12] = molecular target: Beta-lactamase (Acinetobacter baumannii) (UniProt Q8RLA6); conditions: NCTC 13301; remark: listed apart in the source
[13] = molecular target: Beta-lactamase (Acinetobacter baumannii) (UniProt Q8RLA6); conditions: S-4; remark: listed apart in the source
[14] = molecular target: Beta-lactamase (Acinetobacter baumannii) (UniProt Q8RLA6); conditions: S-15; remark: listed apart in the source
[15] = molecular target: Beta-lactamase (Acinetobacter baumannii) (UniProt Q8RLA6); conditions: NCTC 13301; remark: listed apart in the source
[16] = molecular target: Beta-lactamase (Acinetobacter baumannii) (UniProt Q8RLA6); conditions: NCTC 13304
[17] = molecular target: Beta-lactamase (Acinetobacter baumannii) (UniProt Q8RLA6); experiment: Inhibition of beta-lactamase in extended-spectrum b-lactamase producing Acinetobacter baumannii S-4 assessed as potentiation of cefpirome-induced antibacterial activity by measuring cefpirome MIC at 4 to 8 ug/ml incubated for 16 to 20 hrs by CLSI method
[18] = molecular target: Beta-lactamase (Acinetobacter baumannii) (UniProt Q8RLA6); conditions: S-10; remark: listed apart in the source
[19] = molecular target: Beta-lactamase (Acinetobacter baumannii) (UniProt Q8RLA6); conditions: S-4; remark: listed apart in the source
Acinetobacter baumannii [20] = experiment: Antibacterial activity against extended-spectrum b-lactamase producing Acinetobacter baumannii S-15 incubated for 16 to 20 hrs by CLSI method; type: functional
[21] = molecular target: Beta-lactamase (Acinetobacter baumannii) (UniProt Q8RLA6); conditions: NCTC 13305
[22] = molecular target: Beta-lactamase (Acinetobacter baumannii) (UniProt Q8RLA6); experiment: Inhibition of beta-lactamase in extended-spectrum b-lactamase producing Acinetobacter baumannii S-4 assessed as potentiation of cefepime-induced antibacterial activity by measuring cefepime MIC at 4 to 8 ug/ml incubated for 16 to 20 hrs by CLSI method
[23] = molecular target: Beta-lactamase (Acinetobacter baumannii) (UniProt Q8RLA6); conditions: NCTC 13301; remark: listed apart in the source
[24] = molecular target: Beta-lactamase (Acinetobacter baumannii) (UniProt Q8RLA6); conditions: NCTC 13305; remark: listed apart in the source
[25] = molecular target: Beta-lactamase (Acinetobacter baumannii) (UniProt Q8RLA6); conditions: S-3; remark: listed apart in the source
[26] = molecular target: Beta-lactamase (Acinetobacter baumannii) (UniProt Q8RLA6); conditions: NCTC 13301; remark: listed apart in the source
[27] = molecular target: Beta-lactamase (Acinetobacter baumannii) (UniProt Q8RLA6); conditions: NCTC 13301; remark: listed apart in the source
[28] = molecular target: Beta-lactamase (Acinetobacter baumannii) (UniProt Q8RLA6); experiment: Inhibition of beta-lactamase in extended-spectrum b-lactamase producing Acinetobacter baumannii S-3 assessed as potentiation of cefpirome-induced antibacterial activity by measuring cefpirome MIC at 4 to 8 ug/ml incubated for 16 to 20 hrs by CLSI method
[29] = molecular target: Beta-lactamase (Acinetobacter baumannii) (UniProt Q8RLA6); conditions: S-8; remark: listed apart in the source
[30] = molecular target: Beta-lactamase (Acinetobacter baumannii) (UniProt Q8RLA6); conditions: S-4; remark: listed apart in the source
[31] = molecular target: Beta-lactamase (Acinetobacter baumannii) (UniProt Q8RLA6); conditions: S-10; remark: listed apart in the source
[32] = molecular target: Beta-lactamase (Acinetobacter baumannii) (UniProt Q8RLA6); conditions: S-15; remark: listed apart in the source
[33] = molecular target: Beta-lactamase (Acinetobacter baumannii) (UniProt Q8RLA6); conditions: NCTC 13305; remark: listed apart in the source
[34] = molecular target: Beta-lactamase (Acinetobacter baumannii) (UniProt Q8RLA6); conditions: S-8; remark: listed apart in the source

`NC(=O)[C@@H]1CC[C@@H]2CN1C(=O)N2OS(=O)(=O)O` was tested, and the MIC (Acinetobacter baumannii [1]) was > 64 mg/L, the MIC [2] was 8 mg/L (≈ 30.2 µM) and the MIC [3] was 0.5 mg/L (≈ 1.89 µM). For the same compound, the MIC [4] was 4 mg/L (≈ 15.1 µM), the MIC [5] was < 0.06 mg/L and the MIC [6] was 0.5 mg/L (≈ 1.89 µM). The MIC [7] was 4 mg/L (≈ 15.1 µM), the MIC [8] was < 0.06 mg/L and the MIC [9] was 8 mg/L (≈ 30.2 µM). For the same compound, the MIC [10] was 8 mg/L (≈ 30.2 µM), the MIC [11] was > 32 mg/L and the MIC [12] was < 0.06 mg/L. For the same compound, the MIC [13] was 4 mg/L (≈ 15.1 µM), the MIC [14] was 0.12 mg/L (≈ 0.452 µM) and the MIC [15] was < 0.06 mg/L. For the same compound, the MIC [16] was < 0.06 mg/L, the MIC [17] was 32 mg/L and the MIC [18] was < 0.03 mg/L. The MIC [19] was 1 mg/L (≈ 3.77 µM), the MIC (Acinetobacter baumannii [20]) was > 64 mg/L and the MIC [21] was < 0.06 mg/L. The MIC [22] was 32 mg/L, the MIC [23] was < 0.06 mg/L and the MIC [24] was < 0.06 mg/L. For the same compound, the MIC [25] was 0.5 mg/L (≈ 1.89 µM), the MIC [26] was < 0.06 mg/L and the MIC [27] was < 0.06 mg/L. It also gave an MIC [28] of 32 mg/L, an MIC [29] of 8 mg/L (≈ 30.2 µM) and an MIC [30] of 0.5 mg/L (≈ 1.89 µM). The MIC [31] was < 0.03 mg/L, the MIC [32] was 0.5 mg/L (≈ 1.89 µM) and the MIC [33] was < 0.06 mg/L. The MIC [34] was 0.5 mg/L (≈ 1.89 µM).
